# Measurements from ChEMBL document CHEMBL4400540, “Structure-based design, synthesis and biological evaluation of a novel series of isoquinolone and pyrazolo[4,3-c]pyridine inhibitors of fascin 1 as potential anti-metastatic agents” (Bioorg Med Chem Lett, 2019).
# Experiments:
# Fascin [1] = molecular target: T1, Fascin (Homo sapiens, UniProt Q16658)
# Fascin [2] = molecular target: T1, Fascin; remark: listed apart in the source
# Fascin [3] = molecular target: T1, Fascin; test: Binding affinity to fascin 1 (unknown origin) by SPR assay
# [4] = Intrinsic clearance in mouse microsomes assessed per mg protein; format: ADME, Microsome
# Cytochrome P450 2C9 = Cytochrome P450 2C9 (Homo sapiens, UniProt P11712); test: Inhibition of CYP2C9 (unknown origin); format: ADME
# [5] = Intrinsic clearance in human microsomes assessed per mg protein; format: ADME, Microsome
# [6] = Solubility of compound by turbidimetric method; format: physicochemical
# [7] = Apparent permeability of the compound across apical side to basolateral side in human Caco2 cells; format: ADME, cell-based; conditions: caco-2
# [8] = Lipophilicity, log D of the compound at pH 7.4; format: physicochemical; conditions: buffer
# [9] = molecular target: Voltage-gated inwardly rectifying potassium channel KCNH2 (Homo sapiens, UniProt Q12809); test: Inhibition of human ERG
# Cytochrome P450 2D6 = Cytochrome P450 2D6 (Homo sapiens, UniProt P10635); test: Inhibition of CYP2D6 (unknown origin); format: ADME
# Cytochrome P450 2C19 = Cytochrome P450 2C19 (Homo sapiens, UniProt P33261); test: Inhibition of CYP2C19 (unknown origin); format: ADME
# Fascin [10] = molecular target: T1, Fascin; remark: listed apart in the source
# [11] = Efflux ratio of apparent permeability of the compound in human Caco2 cells; format: ADME, cell-based; conditions: caco-2
# Cytochrome P450 3A4 = Cytochrome P450 3A4 (Homo sapiens, UniProt P08684); test: Inhibition of CYP3A4 (unknown origin); format: ADME
# Chain of Cytochrome P450 3A4 (P08684 whole entry): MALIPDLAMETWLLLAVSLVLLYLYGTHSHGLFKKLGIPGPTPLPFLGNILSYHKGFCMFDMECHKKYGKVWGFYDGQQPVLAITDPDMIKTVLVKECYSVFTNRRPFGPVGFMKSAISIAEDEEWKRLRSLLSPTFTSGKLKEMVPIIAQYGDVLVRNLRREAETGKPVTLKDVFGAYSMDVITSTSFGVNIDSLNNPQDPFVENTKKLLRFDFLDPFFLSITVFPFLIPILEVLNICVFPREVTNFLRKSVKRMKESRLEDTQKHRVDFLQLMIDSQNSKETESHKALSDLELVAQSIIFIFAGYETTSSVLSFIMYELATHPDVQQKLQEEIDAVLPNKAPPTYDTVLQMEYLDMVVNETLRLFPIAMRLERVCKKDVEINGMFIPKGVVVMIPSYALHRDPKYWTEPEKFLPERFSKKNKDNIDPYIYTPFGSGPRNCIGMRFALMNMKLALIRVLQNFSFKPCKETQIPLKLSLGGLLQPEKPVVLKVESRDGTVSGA
# Chain of Cytochrome P450 2C19 (P33261 whole entry): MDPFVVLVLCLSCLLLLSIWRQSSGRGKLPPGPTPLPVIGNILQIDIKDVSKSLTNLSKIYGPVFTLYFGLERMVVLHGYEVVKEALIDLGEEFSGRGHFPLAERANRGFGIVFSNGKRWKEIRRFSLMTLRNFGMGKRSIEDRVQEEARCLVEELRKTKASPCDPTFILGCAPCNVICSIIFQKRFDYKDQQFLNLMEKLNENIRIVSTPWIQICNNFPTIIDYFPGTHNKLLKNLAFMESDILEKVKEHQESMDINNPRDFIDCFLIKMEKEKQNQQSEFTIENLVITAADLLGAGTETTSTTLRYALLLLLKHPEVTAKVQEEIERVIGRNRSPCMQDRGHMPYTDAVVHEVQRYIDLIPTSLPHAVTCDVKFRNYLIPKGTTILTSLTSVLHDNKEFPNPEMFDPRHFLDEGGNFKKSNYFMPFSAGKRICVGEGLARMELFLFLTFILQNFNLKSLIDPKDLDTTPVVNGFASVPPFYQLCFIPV
# Chain of Voltage-gated inwardly rectifying potassium channel KCNH2 (Q12809 whole entry): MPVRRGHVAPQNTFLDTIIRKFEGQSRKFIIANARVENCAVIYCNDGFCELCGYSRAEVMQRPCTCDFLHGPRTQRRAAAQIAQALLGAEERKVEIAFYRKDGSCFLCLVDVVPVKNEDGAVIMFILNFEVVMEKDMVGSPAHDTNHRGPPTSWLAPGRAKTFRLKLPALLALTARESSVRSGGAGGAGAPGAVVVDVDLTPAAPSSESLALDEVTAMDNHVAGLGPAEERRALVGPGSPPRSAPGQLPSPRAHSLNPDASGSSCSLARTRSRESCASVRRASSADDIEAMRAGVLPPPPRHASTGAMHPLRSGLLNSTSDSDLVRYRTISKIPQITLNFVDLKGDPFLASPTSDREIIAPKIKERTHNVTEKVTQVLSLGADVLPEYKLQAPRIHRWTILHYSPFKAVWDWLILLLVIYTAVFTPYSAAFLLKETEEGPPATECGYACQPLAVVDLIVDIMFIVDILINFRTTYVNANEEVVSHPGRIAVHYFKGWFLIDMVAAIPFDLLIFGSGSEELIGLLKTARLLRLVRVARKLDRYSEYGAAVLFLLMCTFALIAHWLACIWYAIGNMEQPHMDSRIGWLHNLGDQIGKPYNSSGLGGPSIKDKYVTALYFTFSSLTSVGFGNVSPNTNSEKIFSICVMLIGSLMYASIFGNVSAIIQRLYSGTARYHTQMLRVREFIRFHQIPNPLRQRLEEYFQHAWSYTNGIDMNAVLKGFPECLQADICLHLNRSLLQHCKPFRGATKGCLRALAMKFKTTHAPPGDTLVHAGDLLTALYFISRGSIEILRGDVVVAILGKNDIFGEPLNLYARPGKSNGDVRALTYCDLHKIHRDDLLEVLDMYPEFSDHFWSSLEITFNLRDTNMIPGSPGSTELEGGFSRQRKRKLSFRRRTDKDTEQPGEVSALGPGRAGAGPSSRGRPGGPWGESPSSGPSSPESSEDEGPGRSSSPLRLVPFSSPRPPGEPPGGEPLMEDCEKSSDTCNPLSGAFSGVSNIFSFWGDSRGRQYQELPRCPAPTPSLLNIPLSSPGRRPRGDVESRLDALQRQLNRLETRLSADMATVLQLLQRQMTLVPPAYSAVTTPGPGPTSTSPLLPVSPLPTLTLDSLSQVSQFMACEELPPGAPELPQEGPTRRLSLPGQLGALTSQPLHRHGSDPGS
# Chain of Cytochrome P450 2C9 (P11712 whole entry): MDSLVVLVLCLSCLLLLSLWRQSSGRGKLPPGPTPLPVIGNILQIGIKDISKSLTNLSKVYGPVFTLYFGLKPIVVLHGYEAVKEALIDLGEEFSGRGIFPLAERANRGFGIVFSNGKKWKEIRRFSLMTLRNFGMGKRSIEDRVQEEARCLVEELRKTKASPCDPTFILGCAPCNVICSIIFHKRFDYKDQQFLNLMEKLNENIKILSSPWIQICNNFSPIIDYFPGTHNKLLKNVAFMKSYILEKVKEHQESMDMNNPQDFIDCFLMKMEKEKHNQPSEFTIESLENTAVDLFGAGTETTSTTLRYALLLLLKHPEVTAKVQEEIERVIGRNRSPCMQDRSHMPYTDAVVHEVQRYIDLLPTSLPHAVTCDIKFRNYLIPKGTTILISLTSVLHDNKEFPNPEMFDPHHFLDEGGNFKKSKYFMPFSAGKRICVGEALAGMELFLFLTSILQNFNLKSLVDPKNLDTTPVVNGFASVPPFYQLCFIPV
# Chain of Cytochrome P450 2D6 (P10635 whole entry): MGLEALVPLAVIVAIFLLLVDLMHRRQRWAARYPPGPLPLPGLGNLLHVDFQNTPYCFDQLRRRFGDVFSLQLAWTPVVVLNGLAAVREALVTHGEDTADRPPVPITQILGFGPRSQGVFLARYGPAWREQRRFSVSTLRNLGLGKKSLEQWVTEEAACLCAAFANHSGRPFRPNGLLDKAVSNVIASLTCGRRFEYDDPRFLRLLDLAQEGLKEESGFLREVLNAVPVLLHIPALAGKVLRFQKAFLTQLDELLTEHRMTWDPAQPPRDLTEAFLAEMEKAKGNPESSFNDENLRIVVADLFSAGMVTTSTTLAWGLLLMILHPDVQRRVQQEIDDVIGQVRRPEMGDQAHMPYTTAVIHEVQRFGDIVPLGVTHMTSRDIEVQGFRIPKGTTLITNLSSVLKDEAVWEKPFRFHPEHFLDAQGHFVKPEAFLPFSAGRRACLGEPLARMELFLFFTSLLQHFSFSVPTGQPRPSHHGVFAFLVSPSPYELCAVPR
Structure (SMILES),Kd (Fascin [1]),IC50 (Fascin [2]),further results
Cn1cc(NC(=O)c2cn(Cc3ccccc3)c(=O)c3ccccc23)cn1,29.3 µM,67.9 µM,
Cn1cc(NC(=O)c2cn(Cc3ccc(Cl)cc3)c(=O)c3ccccc23)cn1,2.7 µM,4.6 µM,
O=c1c2cnn(C3CCS(=O)(=O)C3)c2ncn1Cc1ccc(Cl)c(Cl)c1 (configuration not stated),,67.6 µM,
Nc1cc(C(=O)Nc2cnn(C3CCNC3)c2)cn(Cc2ccc(Cl)c(Cl)c2)c1=O (configuration not stated),21 µM,> 100 µM,
Cn1cc(NC(=O)c2cn(Cc3cccc(Cl)c3)c(=O)c3ccccc23)cn1,7.6 µM,11.4 µM,
Cn1cc(NC(=O)c2cn(Cc3ccc(Cl)c(Cl)c3)c(=O)c3ccccc23)cn1,1.5 µM,1.3 µM,
CC(=O)N(C)c1ccc(Cl)cc1Cl,,,Kd (Fascin [3]): 92 µM
O=C(Nc1ccncc1)c1cn(Cc2ccc(Cl)c(Cl)c2)c(=O)c2cnn(C3CCNCC3)c12,0.09 µM,0.24 µM,CL [4]: 11.8 µL/min; IC50 (Cytochrome P450 2C9): 5.9 µM; CL [5]: 6.4 µL/min; solubility kinetic [6]: 65 µM; Papp [7]: 0.15 ×10⁻⁶ cm/s; logD [8]: 1.8; IC50 [9]: > 25 µM; IC50 (Cytochrome P450 2D6): 1.6 µM; IC50 (Cytochrome P450 2C19): 22 µM; Kd (Fascin [10]): 0.05 µM; Ratio [11]: 37.8; IC50 (Cytochrome P450 3A4): 7 µM
CN(c1cc2c(C(=O)Nc3cnn(C)c3)cn(Cc3ccc(Cl)c(Cl)c3)c(=O)c2cn1)S(C)(=O)=O,2 µM,,
Cn1cc(NC(=O)c2cn(Cc3ccc(Cl)c(Cl)c3)c(=O)c3cnn(C4CCS(=O)(=O)C4)c23)cn1 (configuration not stated),0.6 µM,0.63 µM,
O=C(Nc1ccncc1)c1cn(Cc2ccc(Cl)c(Cl)c2)c(=O)c2cnn(C3CCS(=O)(=O)C3)c12 (configuration not stated),0.27 µM,0.33 µM,
Cn1cc(NC(=O)c2cn(Cc3ccc(Cl)c(Cl)c3)c(=O)c3cnc(N4CCNCC4)cc23)cn1,0.58 µM,0.63 µM,
Cn1cc(NC(=O)c2cn(Cc3ccc(Cl)c(Cl)c3)c(=O)c3cccnc23)cn1,> 100 µM,,
O=C(Nc1cnn(C2CCNC2)c1)c1ccc(=O)n(Cc2ccc(Cl)c(Cl)c2)c1 (configuration not stated),> 100 µM,,
O=c1c2cn[nH]c2ncn1Cc1ccc(Cl)c(Cl)c1,> 500 µM,,
Cn1cc(NC(=O)c2cn(Cc3ccc(Cl)c(Cl)c3)c(=O)c3ncccc23)cn1,> 100 µM,,
